{
  "source": "ChEMBL document CHEMBL1201862",
  "about": "“PubChem BioAssay data set” (2004)",
  "key": {"[1]": {"biological_target": "T1, Heat shock factor protein 1 (Mus musculus, UniProt P38532)", "T1 sequence (P38532 whole entry)": "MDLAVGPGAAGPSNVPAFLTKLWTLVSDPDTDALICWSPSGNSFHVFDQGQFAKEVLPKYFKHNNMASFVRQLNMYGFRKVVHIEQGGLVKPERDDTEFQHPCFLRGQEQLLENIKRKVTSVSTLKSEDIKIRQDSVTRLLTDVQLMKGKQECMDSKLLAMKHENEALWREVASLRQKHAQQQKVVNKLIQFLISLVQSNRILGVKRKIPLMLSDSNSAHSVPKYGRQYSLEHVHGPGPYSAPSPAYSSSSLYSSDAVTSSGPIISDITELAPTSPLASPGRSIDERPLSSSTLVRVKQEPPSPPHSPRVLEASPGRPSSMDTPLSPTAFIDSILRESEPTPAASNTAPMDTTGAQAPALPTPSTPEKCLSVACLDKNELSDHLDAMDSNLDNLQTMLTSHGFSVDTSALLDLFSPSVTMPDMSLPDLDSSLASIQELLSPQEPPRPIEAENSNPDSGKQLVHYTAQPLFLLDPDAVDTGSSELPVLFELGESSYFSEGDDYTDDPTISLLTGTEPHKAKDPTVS", "experiment": "inhibition of MG132-induced HSE-luciferase signal, confirmation, cell-based, NIH3T3, luminescence, dose retest (AID 2382);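 further: NIH3T3 fibroblasts with HSF1-driven luciferase reporter stressed by proteasome inhibitor MG132; luminescence from HSF1-driven luciferase expression after 8 hours of MG132 stress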", "assay_type": "functional"}, "Vibrio harveyi [2]": {"tested_on": "Vibrio harveyi", "experiment": "Quorum Sensing, LuxS, LuxPQ Measured in Microorganism System Using Plate Reader - 2035-01_Inhibitor_DoseNoFile_DryPowder_Activity. [Related pubchem assays (depositor defined):AID2106]", "assay_type": "functional, organism-based"}, "Vibrio harveyi [3]": {"tested_on": "Vibrio harveyi", "experiment": "inhibitors of AI-2 quorum sensing in V. harveyi, dose response, LuxS, LuxPQ, dry powder, set 2 (AID 493072)", "assay_type": "functional, organism-based"}, "[4]": {"experiment": "insulin promoter down-regulators in MIN6 cells, imaging, high-content screening, mouse beta cells (AID 1628)", "assay_type": "functional"}, "[5]": {"biological_target": "Guanyl-specific ribonuclease T1 (Aspergillus oryzae (strain ATCC 42149 / RIB 40), UniProt P00651)", "sequence (P00651 whole entry)": "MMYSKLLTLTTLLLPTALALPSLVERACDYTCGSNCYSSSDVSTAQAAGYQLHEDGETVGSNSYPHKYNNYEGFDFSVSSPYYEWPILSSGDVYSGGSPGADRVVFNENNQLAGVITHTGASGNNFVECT", "experiment": "RNase T1 inhibitors, dose response, counter-screen for TPT1 inhibitor project, biochemical, fluorescence polarization, 1536-well (AID 2167)"}, "[6]": {"experiment": "cytotoxicity in MIN6 insulinoma cells, dose response, cytotoxicity control, cell-based, mouse insulinoma (AID 2122);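 further: confirmatory high-throughput counterscreen run to flag cytotoxic compounds; mouse MIN-6 beta cells carrying an insulin promoter eGFP reporter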", "assay_type": "functional"}, "[7]": {"biological_target": "Likely tRNA 2'-phosphotransferase (Candida albicans (strain SC5314 / ATCC MYA-2876) (Yeast), UniProt Q5A7N4)", "sequence (Q5A7N4 whole entry)": "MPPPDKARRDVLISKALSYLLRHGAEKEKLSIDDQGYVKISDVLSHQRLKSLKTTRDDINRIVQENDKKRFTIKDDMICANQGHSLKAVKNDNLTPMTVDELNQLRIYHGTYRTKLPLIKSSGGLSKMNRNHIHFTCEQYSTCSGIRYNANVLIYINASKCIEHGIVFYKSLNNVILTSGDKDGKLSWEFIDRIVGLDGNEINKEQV", "experiment": "TPT1 tRNA phosphotransferase inhibitors, dose response, biochemical, fluorescence polarization (AID 2160)"}, "[8]": {"experiment": "cytotoxicity in HEK-293T cells, dose response, cytotoxicity control for TCR NF-kB inhibitor project, luminescence, T-cell screen hits (AID 489026);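 further: cells exposed to compound about 14 hours before the viability readout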", "assay_type": "functional, cell-based"}, "Nonstructural protein 1": {"biological_target": "Nonstructural protein 1 (Influenza A virus, UniProt Q194T2)", "sequence (Q194T2 whole entry)": "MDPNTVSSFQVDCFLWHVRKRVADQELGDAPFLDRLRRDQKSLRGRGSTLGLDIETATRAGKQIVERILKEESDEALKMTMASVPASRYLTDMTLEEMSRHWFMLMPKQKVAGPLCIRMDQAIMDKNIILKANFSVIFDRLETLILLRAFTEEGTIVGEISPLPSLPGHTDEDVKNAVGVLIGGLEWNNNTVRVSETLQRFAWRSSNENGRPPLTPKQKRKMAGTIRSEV", "assay_type": "functional, Influenza A virus (A/California/07/2009(H1N1))"}, "[9]": {"biological_target": "T2, Microphthalmia-associated transcription factor (Homo sapiens, UniProt O75030)", "T2 sequence (O75030 whole entry)": "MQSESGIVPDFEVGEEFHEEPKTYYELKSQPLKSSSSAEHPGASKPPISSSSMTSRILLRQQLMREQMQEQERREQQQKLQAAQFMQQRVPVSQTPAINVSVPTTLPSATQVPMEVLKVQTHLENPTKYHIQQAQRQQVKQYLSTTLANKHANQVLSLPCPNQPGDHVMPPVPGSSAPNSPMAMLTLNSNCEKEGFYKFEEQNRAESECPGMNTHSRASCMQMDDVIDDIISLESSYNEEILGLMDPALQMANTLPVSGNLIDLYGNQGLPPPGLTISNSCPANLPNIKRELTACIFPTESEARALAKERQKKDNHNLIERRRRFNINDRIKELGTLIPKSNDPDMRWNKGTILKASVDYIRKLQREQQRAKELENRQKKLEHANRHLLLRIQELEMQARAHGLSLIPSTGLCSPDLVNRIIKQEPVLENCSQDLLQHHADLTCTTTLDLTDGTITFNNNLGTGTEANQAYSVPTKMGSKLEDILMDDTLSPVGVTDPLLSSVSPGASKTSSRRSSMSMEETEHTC", "experiment": "TRPM1 promoter luciferase signal decrease, dose response, MITF inhibitor project, cell-based, SK-MEL-5, cherry-picked, set 3 (AID 493073)", "assay_type": "functional"}, "INS1": {"tested_on": "INS1", "experiment": "beta cell apoptosis inhibitors, cytokine rescue, dose response, luminescence, retest (AID 449756);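 further: cell death triggered by IL-1 beta plus TNF-alpha plus IFN-gamma mixture; protective hits raise ATP signal compared with cytokine alone wells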", "assay_type": "functional, cell-based", "conditions": "Rattus norvegicus"}, "[10]": {"biological_target": "G-protein coupled receptor 35 (Homo sapiens, UniProt Q9HC97)", "sequence (Q9HC97 whole entry)": "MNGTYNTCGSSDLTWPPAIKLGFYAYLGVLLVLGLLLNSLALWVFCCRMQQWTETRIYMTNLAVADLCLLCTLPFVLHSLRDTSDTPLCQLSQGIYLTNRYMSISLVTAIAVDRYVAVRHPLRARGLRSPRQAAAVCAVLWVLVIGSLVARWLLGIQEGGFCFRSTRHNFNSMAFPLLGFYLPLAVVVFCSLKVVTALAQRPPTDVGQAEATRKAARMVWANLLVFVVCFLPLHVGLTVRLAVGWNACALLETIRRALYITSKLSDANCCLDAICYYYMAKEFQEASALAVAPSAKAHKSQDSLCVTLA", "experiment": "GPR35 antagonists blocking zaprinast-driven arrestin recruitment, primary screen, imaging, U2OS, beta-arrestin-GFP, zaprinast agonist (AID 2058);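 further: antagonist potency meaning inhibition of agonist-induced arrestin redistribution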", "assay_type": "functional"}, "[11]": {"biological_target": "G-protein coupled receptor 55 (Homo sapiens, UniProt Q9Y2T6)", "sequence (Q9Y2T6 whole entry)": "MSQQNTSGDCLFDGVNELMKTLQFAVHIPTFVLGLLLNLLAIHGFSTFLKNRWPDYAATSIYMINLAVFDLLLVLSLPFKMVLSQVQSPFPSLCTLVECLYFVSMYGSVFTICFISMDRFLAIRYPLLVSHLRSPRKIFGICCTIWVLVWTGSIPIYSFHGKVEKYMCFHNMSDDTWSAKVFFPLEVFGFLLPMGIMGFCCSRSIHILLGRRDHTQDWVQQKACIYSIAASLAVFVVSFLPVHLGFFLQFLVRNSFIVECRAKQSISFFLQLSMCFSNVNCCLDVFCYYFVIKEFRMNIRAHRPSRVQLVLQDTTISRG", "experiment": "GPR55 antagonists blocking LPI-driven arrestin recruitment, primary screen, imaging, U2OS, beta-arrestin-GFP, LPI agonist (AID 2013);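 further: antagonist potency measured as reduced agonist-driven arrestin aggregation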", "assay_type": "functional"}, "Cytochrome P450 2C9": {"biological_target": "Cytochrome P450 2C9 (Homo sapiens, UniProt P11712)", "sequence (P11712 whole entry)": "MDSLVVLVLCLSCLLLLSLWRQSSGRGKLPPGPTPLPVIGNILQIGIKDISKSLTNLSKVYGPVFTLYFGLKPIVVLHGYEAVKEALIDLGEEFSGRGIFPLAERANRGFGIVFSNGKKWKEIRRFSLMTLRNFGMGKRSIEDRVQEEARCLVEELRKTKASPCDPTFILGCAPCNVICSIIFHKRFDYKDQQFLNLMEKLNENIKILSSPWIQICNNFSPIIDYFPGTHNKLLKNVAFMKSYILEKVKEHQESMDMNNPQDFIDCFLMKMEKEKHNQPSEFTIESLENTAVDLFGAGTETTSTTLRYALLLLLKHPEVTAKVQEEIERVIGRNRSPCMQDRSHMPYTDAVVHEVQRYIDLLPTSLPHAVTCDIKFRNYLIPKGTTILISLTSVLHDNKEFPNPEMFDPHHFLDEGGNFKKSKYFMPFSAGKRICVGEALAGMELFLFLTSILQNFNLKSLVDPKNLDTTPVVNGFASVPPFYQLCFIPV"}, "[12]": {"biological_target": "T3, Short transient receptor potential channel 4 (Mus musculus, UniProt Q9QUQ5)", "T3 sequence (Q9QUQ5 whole entry)": "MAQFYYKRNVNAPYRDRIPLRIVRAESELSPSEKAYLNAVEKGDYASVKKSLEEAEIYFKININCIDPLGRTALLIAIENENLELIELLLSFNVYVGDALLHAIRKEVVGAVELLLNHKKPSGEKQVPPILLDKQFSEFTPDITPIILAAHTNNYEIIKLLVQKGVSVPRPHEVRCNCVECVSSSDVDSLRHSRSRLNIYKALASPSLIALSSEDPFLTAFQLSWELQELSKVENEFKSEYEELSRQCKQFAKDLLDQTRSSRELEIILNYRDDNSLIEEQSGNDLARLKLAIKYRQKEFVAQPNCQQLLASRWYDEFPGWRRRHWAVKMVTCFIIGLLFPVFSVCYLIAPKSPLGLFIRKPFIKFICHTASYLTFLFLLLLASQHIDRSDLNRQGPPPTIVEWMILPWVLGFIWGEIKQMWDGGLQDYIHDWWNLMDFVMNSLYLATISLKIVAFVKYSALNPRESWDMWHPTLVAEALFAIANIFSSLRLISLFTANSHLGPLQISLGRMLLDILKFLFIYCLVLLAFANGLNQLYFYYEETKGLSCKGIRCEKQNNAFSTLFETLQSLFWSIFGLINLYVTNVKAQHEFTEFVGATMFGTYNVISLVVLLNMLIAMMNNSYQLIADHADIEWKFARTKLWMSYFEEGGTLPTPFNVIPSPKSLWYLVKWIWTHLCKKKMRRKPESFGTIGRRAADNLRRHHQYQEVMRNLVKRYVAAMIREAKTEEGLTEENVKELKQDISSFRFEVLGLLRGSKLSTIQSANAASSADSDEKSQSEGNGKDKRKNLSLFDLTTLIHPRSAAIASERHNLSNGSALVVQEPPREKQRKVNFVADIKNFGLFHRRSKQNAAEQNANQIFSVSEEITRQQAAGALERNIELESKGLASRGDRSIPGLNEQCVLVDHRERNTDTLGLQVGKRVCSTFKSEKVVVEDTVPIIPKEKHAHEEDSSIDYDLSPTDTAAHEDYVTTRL", "experiment": "mouse TRPC4 channel inhibitors, dose response, cell-based, HEK293 TRPC4/mu-opioid, Fluo-4 calcium (AID 434942)", "assay_type": "functional"}, "[13]": {"biological_target": "DNA repair protein RAD52 homolog (Homo sapiens, UniProt P43351)", "sequence (P43351 whole entry)": "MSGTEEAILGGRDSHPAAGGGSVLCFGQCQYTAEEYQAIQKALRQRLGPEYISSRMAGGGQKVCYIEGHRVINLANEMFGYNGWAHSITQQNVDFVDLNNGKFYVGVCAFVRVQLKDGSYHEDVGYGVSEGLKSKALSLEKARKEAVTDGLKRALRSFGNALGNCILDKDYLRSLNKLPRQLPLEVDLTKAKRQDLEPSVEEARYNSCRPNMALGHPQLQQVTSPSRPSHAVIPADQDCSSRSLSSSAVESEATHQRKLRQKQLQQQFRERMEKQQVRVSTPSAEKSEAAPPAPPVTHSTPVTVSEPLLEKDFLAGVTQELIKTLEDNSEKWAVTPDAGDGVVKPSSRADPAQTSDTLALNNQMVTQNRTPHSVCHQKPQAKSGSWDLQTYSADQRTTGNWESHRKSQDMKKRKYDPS", "assay_type": "functional, biochemical"}, "[14]": {"biological_target": "T4, RNA-editing ligase 1, mitochondrial (Trypanosoma brucei brucei, UniProt P86926)", "T4 sequence (P86926 whole entry)": "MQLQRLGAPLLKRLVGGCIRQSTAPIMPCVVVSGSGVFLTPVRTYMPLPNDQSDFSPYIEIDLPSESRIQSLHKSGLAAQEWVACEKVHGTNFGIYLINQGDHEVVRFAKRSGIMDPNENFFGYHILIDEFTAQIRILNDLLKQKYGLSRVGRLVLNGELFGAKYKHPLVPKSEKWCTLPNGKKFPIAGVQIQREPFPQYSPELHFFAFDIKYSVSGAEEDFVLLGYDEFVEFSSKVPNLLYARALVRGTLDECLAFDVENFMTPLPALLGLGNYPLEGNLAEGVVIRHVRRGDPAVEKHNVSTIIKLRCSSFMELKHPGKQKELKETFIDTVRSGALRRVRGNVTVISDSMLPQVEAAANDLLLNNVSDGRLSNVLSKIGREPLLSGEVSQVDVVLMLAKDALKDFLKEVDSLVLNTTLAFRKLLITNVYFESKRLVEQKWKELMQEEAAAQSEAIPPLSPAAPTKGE", "experiment": "TbREL1 ligase inhibitors, dose response, biochemical, fluorescence, Trypanosoma brucei (AID 1117295)", "assay_type": "functional"}},
  "note": "Calls of active or inactive are those of the source.",
  "data": [
    {"smiles": "COc1cc(NC(=O)CN2C(=O)NC(c3ccccc3)(c3ccccc3)C2=O)cc(OC)c1", "values": [
      {"measurement": "EC50", "setting": "[1]", "result": "> 195 µM (not active)"},
      {"measurement": "AC50", "setting": "Vibrio harveyi [2]", "result": "0.594 µM (active)"},
      {"measurement": "AC50", "setting": "Vibrio harveyi [3]", "result": "0.77 µM (active)"},
      {"measurement": "AC50", "setting": "Vibrio harveyi [3]; Vibrio harveyi", "result": "0.671 µM (active)"}
    ]},
    {"smiles": "Cn1cc(C(=O)N/N=C/c2c(O)ccc3ccccc23)ccc1=O", "values": [
      {"measurement": "IC50", "setting": "[4]", "result": "4.33 µM (active)"},
      {"measurement": "IC50", "setting": "[5]", "result": "> 55.7 µM (not active)"},
      {"measurement": "IC50", "setting": "[6]", "result": "4.04 µM (active)"},
      {"measurement": "IC50", "setting": "[7]", "result": "> 55.7 µM (not active)"},
      {"measurement": "IC50", "setting": "[8]", "result": "> 80 µM (inactive)"},
      {"measurement": "IC50", "setting": "Nonstructural protein 1", "result": "> 100 µM (active)"},
      {"measurement": "AC50", "setting": "[9]", "result": "2.55 µM (active)"},
      {"measurement": "AC50", "setting": "INS1", "result": "0.774 µM (active)"}
    ]},
    {"smiles": "CC(=O)Oc1ccc(C(c2ccc(OC(C)=O)cc2)c2ccccn2)cc1", "note": "[BISACODYL]", "values": [
      {"measurement": "IC50", "setting": "[10]", "result": "> 32 µM (inactive)"},
      {"measurement": "IC50", "setting": "[11]", "result": "0.908 µM (active)"},
      {"measurement": "AC50", "setting": "Cytochrome P450 2C9", "result": "15.8 µM (inconclusive)"}
    ]},
    {"smiles": "CCCCCC[N+](C)(C)CC/C=C1/c2ccccc2Sc2ccc(Cl)cc21", "values": [
      {"measurement": "EC50", "setting": "[12]", "result": "0.299 µM (active)"},
      {"measurement": "AC50", "setting": "[13]", "result": "10.2 µM (active)"},
      {"measurement": "IC50", "setting": "[14]", "result": "> 96.6 µM (inactive)"}
    ]}
  ]
}
